Laboratory results: US20260098061A1, “EPHA2-BINDING PENDING PEPTIDE AND COMPOSITION COMPRISING SAME” (PeptiDream Inc., priority 2022, published 2026)
Numbered stars: 1 amine (or outer) side, 2 acyl side, 3 side chain; on linkers, the order of the positions; unused ones are H or OH. Bridge positions count the residues as written; N and C are the ends. Square brackets hold non-standard residues; d marks the D form. Side chains are listed from the residue outwards. Peptide text beside a SMILES is read from it. * marks the point of attachment. Piperazinyl(4-CH2COOH) = O=C(O)CN1CCN(*)CC1; Trp(1-Me) = Cn1cc(C[C@H](N)C(=O)O)c2ccccc21; NMe3Pal = CN[C@@H](Cc1cccnc1)C(=O)O; NMeF = CN[C@@H](Cc1ccccc1)C(=O)O; Gly(cBu) = N[C@H](C(=O)O)C1CCC1; NMeE = CN[C@@H](CCC(=O)O)C(=O)O; Aad = N[C@@H](CCCC(=O)O)C(=O)O; CO = O=C([*:1])[*:2]; βAla = NCCC(=O)O

Molecular target: T1, Recombinant Human EphA2 Fc Protein (Homo sapiens, UniProt P29317)
T1 construct: purchased Elabscience
Experiment: SPR interaction analysis (Biacore T200), kinetics of peptides against EphA2
Format: binding
Conditions: Recombinant Human EphA2 Fc Protein captured by Human Antibody Capture kit; single-cycle kinetics; 25° C.; HBS-P+ buffer with 1% DMSO
Description: Example 14 Interaction Analysis by SPR was Performed Using Biacore (Cytiva)
SPR assay was performed using Biacore T200 (Cytiva).
The HBS-P+ buffer (10 mM HEPES (pH7.4), 150 mM NaCl, 0.05% (v/V) Surfactant P20) containing 1% DMSO was used as running buffer. Recombinant Human EphA2 Fc Protein (Fc tag, Elabscience) was captured by Human Antibody Capture kit (Cytiva). Peptide samples in DMSO were diluted with running buffer, and prepared five serial dilutions. Using these serial dilutions, kinetics of peptides against EphA2 was measured at a flow rate of 30 mL/min at 25° C. The method adopted for sample measurement was a single-cycle kinetics method. The analysis was conducted using the evaluation software 3.0 provided with Biacore T200. Kinetics fitting was done on the difference data obtained by subtracting the baseline data from sample measurement data. KD values were calculated based on the association rate constant (ka) and dissociation rate constant (kd).

| SMILES | Kd [nM] |
| --- | --- |
| CC(=O)NCCCC[C@H](NC(=O)[C@@H]1CSCC(=O)N[C@H](C)C(=O)N(C)[C@@H](Cc2cccnc2)C(=O)N[C@@H](CC(N)=O)C(=O)N[C@@H](CC(C)C)C(=O)N[C@@H](CCCCNC(=O)N2CCN(CC(=O)O)CC2)C(=O)N(C)[C@@H](Cc2ccccc2)C(=O)N[C@@H](Cc2cn(C)c3ccccc23)C(=O)N[C@@H](CCCCNC(=O)N2CCN(CC(=O)O)CC2)C(=O)N[C@@H](Cc2cn(C)c3ccccc23)C(=O)N[C@@H]([C@@H](C)O)C(=O)N[C@@H](CCC(=O)O)C(=O)N1)C(N)=O [PDC_EphA2-00008089, da-Me3Py-N-L-KCOpipzaa-MeF-W1Me-KCOpipzaa-W1Me-T-E-C-KAc-NH2] ({CH2CO}-[dA][NMe3Pal]NLK([CO-Piperazinyl(4-CH2COOH)])[NMeF][Trp(1-Me)]K([CO-Piperazinyl(4-CH2COOH)])[Trp(1-Me)]TECK(Ac)-NH2; thioether N-12) | < 1 |
| CC(=O)NCCCC[C@@H](NC(=O)[C@@H]1CSCC(=O)N[C@H](C)C(=O)N(C)[C@@H](Cc2cccnc2)C(=O)N[C@@H](CC(N)=O)C(=O)N[C@@H](CC(C)C)C(=O)N[C@@H](CCCCNC(=O)N2CCN(CC(=O)O)CC2)C(=O)N(C)[C@@H](Cc2ccccc2)C(=O)N[C@@H](Cc2cn(C)c3ccccc23)C(=O)N[C@@H](CCCCNC(=O)N2CCN(CC(=O)O)CC2)C(=O)N[C@@H](Cc2cn(C)c3ccccc23)C(=O)N[C@@H]([C@@H](C)O)C(=O)N[C@@H](CCC(=O)O)C(=O)N1)C(N)=O [PDC_EphA2-00008090, da-Me3Py-N-L-KCOpipzaa-MeF-W1Me-KCOpipzaa-W1Me-T-E-C-dkAc-NH2] ({CH2CO}-[dA][NMe3Pal]NLK([CO-Piperazinyl(4-CH2COOH)])[NMeF][Trp(1-Me)]K([CO-Piperazinyl(4-CH2COOH)])[Trp(1-Me)]TEC[dK](Ac)-NH2; thioether N-12) | < 1 |
| CC(=O)NCCCC[C@@H](NC(=O)CCNC(=O)[C@@H]1CSCC(=O)N[C@H](C)C(=O)N(C)[C@@H](Cc2cccnc2)C(=O)N[C@@H](CC(N)=O)C(=O)N[C@@H](CC(C)C)C(=O)N[C@@H](CCCC(=O)O)C(=O)N(C)[C@@H](Cc2ccccc2)C(=O)N[C@@H](Cc2cn(C)c3ccccc23)C(=O)N[C@@H](CCCCNC(=O)N2CCN(CC(=O)O)CC2)C(=O)N[C@@H](Cc2cn(C)c3ccccc23)C(=O)N[C@@H]([C@@H](C)O)C(=O)N[C@@H](CCCC(N)=O)C(=O)N1)C(N)=O [PDC_EphA2-00008091, da-Me3Py-N-L-Hgl-MeF-W1Me-KCOpipzaa-W1Me-T-Hgn-C-bA-dkAc-NH2] ({CH2CO}-[dA][NMe3Pal]NL[Aad][NMeF][Trp(1-Me)]K([CO-Piperazinyl(4-CH2COOH)])[Trp(1-Me)]T[Aad](NH2)C[βAla][dK](Ac)-NH2; thioether N-12) | < 1 |
| CC(=O)NCCCC[C@@H](NC(=O)CCNC(=O)[C@@H]1CSCC(=O)N[C@H](C)C(=O)N(C)[C@@H](Cc2cccnc2)C(=O)N[C@@H](CC(N)=O)C(=O)N[C@@H](CC(C)C)C(=O)N[C@@H](CCCCNC(=O)N2CCN(CC(=O)O)CC2)C(=O)N(C)[C@@H](Cc2ccccc2)C(=O)N[C@@H](Cc2cn(C)c3ccccc23)C(=O)N[C@@H](CCCCNC(=O)N2CCN(CC(=O)O)CC2)C(=O)N[C@@H](Cc2cn(C)c3ccccc23)C(=O)N[C@@H]([C@@H](C)O)C(=O)N[C@@H](CCCC(N)=O)C(=O)N1)C(N)=O [PDC_EphA2-00008092, da-Me3Py-N-L-KCOpipzaa-MeF-W1Me-KCOpipzaa-W1Me-T-Hgn-C-bA-dkAc-NH2] ({CH2CO}-[dA][NMe3Pal]NLK([CO-Piperazinyl(4-CH2COOH)])[NMeF][Trp(1-Me)]K([CO-Piperazinyl(4-CH2COOH)])[Trp(1-Me)]T[Aad](NH2)C[βAla][dK](Ac)-NH2; thioether N-12) | < 1 |
| CC(=O)NCCCC[C@@H](NC(=O)CCNC(=O)[C@@H]1CSCC(=O)N[C@H](C)C(=O)N(C)[C@@H](Cc2cccnc2)C(=O)N[C@@H](CC(N)=O)C(=O)N[C@@H](CC(C)C)C(=O)N[C@@H](CCCC(N)=O)C(=O)N(C)[C@@H](Cc2ccccc2)C(=O)N[C@@H](Cc2cn(C)c3ccccc23)C(=O)N[C@@H](CCCCNC(=O)N2CCN(CC(=O)O)CC2)C(=O)N[C@@H](Cc2cn(C)c3ccccc23)C(=O)N[C@@H]([C@@H](C)O)C(=O)N[C@@H](CCCC(N)=O)C(=O)N1)C(N)=O [PDC_EphA2-00008093, da-Me3Py-N-L-Hgn-MeF-W1Me-KCOpipzaa-W1Me-T-Hgn-C-bA-dkAc-NH2] ({CH2CO}-[dA][NMe3Pal]NL[Aad](NH2)[NMeF][Trp(1-Me)]K([CO-Piperazinyl(4-CH2COOH)])[Trp(1-Me)]T[Aad](NH2)C[βAla][dK](Ac)-NH2; thioether N-12) | < 1 |
| CC(=O)NCCCC[C@@H](NC(=O)CCNC(=O)[C@@H]1CSCC(=O)N[C@H](C)C(=O)N(C)[C@@H](Cc2cccnc2)C(=O)N[C@@H](CC(N)=O)C(=O)N[C@@H](CC(C)C)C(=O)N[C@@H](CCCC(=O)O)C(=O)N(C)[C@@H](CCC(=O)O)C(=O)N[C@@H](Cc2cn(C)c3ccccc23)C(=O)N[C@@H](CCCCNC(=O)N2CCN(CC(=O)O)CC2)C(=O)N[C@@H](Cc2cn(C)c3ccccc23)C(=O)N[C@@H]([C@@H](C)O)C(=O)N[C@@H](CCCC(N)=O)C(=O)N1)C(N)=O [PDC_EphA2-00008094, da-Me3Py-N-L-Hgl-MeE-W1Me-KCOpipzaa-W1Me-T-Hgn-C-bA-dkAc-NH2] ({CH2CO}-[dA][NMe3Pal]NL[Aad][NMeE][Trp(1-Me)]K([CO-Piperazinyl(4-CH2COOH)])[Trp(1-Me)]T[Aad](NH2)C[βAla][dK](Ac)-NH2; thioether N-12) | < 1 |
| CC(=O)NCCCC[C@@H](NC(=O)CCNC(=O)[C@@H]1CSCC(=O)N[C@H](C)C(=O)N(C)[C@@H](Cc2cccnc2)C(=O)N[C@@H](CC(N)=O)C(=O)N[C@@H](CC(C)C)C(=O)N[C@@H](CCCCNC(=O)N2CCN(CC(=O)O)CC2)C(=O)N(C)[C@@H](CCC(=O)O)C(=O)N[C@@H](Cc2cn(C)c3ccccc23)C(=O)N[C@@H](CCCCNC(=O)N2CCN(CC(=O)O)CC2)C(=O)N[C@@H](Cc2cn(C)c3ccccc23)C(=O)N[C@@H]([C@@H](C)O)C(=O)N[C@@H](CCCC(N)=O)C(=O)N1)C(N)=O [PDC_EphA2-00008095, da-Me3Py-N-L-KCOpipzaa-MeE-W1Me-KCOpipzaa-W1Me-T-Hgn-C-bA-dkAc-NH2] ({CH2CO}-[dA][NMe3Pal]NLK([CO-Piperazinyl(4-CH2COOH)])[NMeE][Trp(1-Me)]K([CO-Piperazinyl(4-CH2COOH)])[Trp(1-Me)]T[Aad](NH2)C[βAla][dK](Ac)-NH2; thioether N-12) | < 1 |
| CC(=O)NCCCC[C@@H](NC(=O)CCNC(=O)[C@@H]1CSCC(=O)N[C@@H](C)C(=O)N(C)[C@@H](Cc2cccnc2)C(=O)N[C@@H](CC(N)=O)C(=O)N[C@@H](CC(C)C)C(=O)N[C@@H](CCCC(=O)O)C(=O)N(C)[C@@H](Cc2ccccc2)C(=O)N[C@@H](Cc2cn(C)c3ccccc23)C(=O)N[C@@H](CCCCNC(=O)N2CCN(CC(=O)O)CC2)C(=O)N[C@@H](Cc2cn(C)c3ccccc23)C(=O)N[C@@H]([C@@H](C)O)C(=O)N[C@@H](CCC(=O)O)C(=O)N1)C(N)=O [PDC_EphA2-00008097, A-Me3Py-N-L-Hgl-MeF-W1Me-KCOpipzaa-W1Me-T-E-C-bA-dkAc-NH2] ({CH2CO}-A[NMe3Pal]NL[Aad][NMeF][Trp(1-Me)]K([CO-Piperazinyl(4-CH2COOH)])[Trp(1-Me)]TEC[βAla][dK](Ac)-NH2; thioether N-12) | 1 to 10 |
| CC(C)C[C@@H]1NC(=O)[C@H](CC(N)=O)NC(=O)[C@H](Cc2cccnc2)N(C)C(=O)[C@@H](C)NC(=O)CSC[C@@H](C(N)=O)NC(=O)[C@H](CCCC(N)=O)NC(=O)[C@H]([C@@H](C)O)NC(=O)[C@H](Cc2cn(C)c3ccccc23)NC(=O)[C@H](CCCCNC(=O)N2CCN(CC(=O)O)CC2)NC(=O)[C@H](Cc2cn(C)c3ccccc23)NC(=O)[C@H](Cc2ccccc2)N(C)C(=O)[C@H](CCCC(N)=O)NC1=O [PDC_EphA2-00009998, da-Me3Py-N-L-Hgn-MeF-W1Me-KCOpipzaa-W1Me-T-Hgn-C-NH2] ({CH2CO}-[dA][NMe3Pal]NL[Aad](NH2)[NMeF][Trp(1-Me)]K([CO-Piperazinyl(4-CH2COOH)])[Trp(1-Me)]T[Aad](NH2)C-NH2; thioether N-12) | < 1 |
| C[C@H]1NC(=O)CSC[C@@H](C(N)=O)NC(=O)[C@H](CCCC(N)=O)NC(=O)[C@H]([C@@H](C)O)NC(=O)[C@H](Cc2cn(C)c3ccccc23)NC(=O)[C@H](CCCCNC(=O)N2CCN(CC(=O)O)CC2)NC(=O)[C@H](Cc2cn(C)c3ccccc23)NC(=O)[C@H](Cc2ccccc2)N(C)C(=O)[C@H](CCCC(N)=O)NC(=O)[C@H](C2CCC2)NC(=O)[C@H](CC(N)=O)NC(=O)[C@H](Cc2cccnc2)N(C)C1=O [PDC_EphA2-00009999, da-Me3Py-N-Cbg-Hgn-MeF-W1Me-KCOpipzaa-W1Me-T-Hgn-C-NH2] ({CH2CO}-[dA][NMe3Pal]N[Gly(cBu)][Aad](NH2)[NMeF][Trp(1-Me)]K([CO-Piperazinyl(4-CH2COOH)])[Trp(1-Me)]T[Aad](NH2)C-NH2; thioether N-12) | < 1 |
| C[C@H]1NC(=O)CSC[C@@H](C(N)=O)NC(=O)[C@H](CCCC(N)=O)NC(=O)[C@H]([C@@H](C)O)NC(=O)[C@H](Cc2cn(C)c3ccccc23)NC(=O)[C@H](CCCCNC(=O)N2CCN(CC(=O)O)CC2)NC(=O)[C@H](Cc2cn(C)c3ccccc23)NC(=O)[C@H](CC(N)=O)NC(=O)[C@H](CCCC(N)=O)NC(=O)[C@H](C2CCC2)NC(=O)[C@H](CC(N)=O)NC(=O)[C@H](Cc2cccnc2)N(C)C1=O [PDC_EphA2-00010000, da-Me3Py-N-Cbg-Hgn-N-W1Me-KCOpipzaa-W1Me-T-Hgn-C-NH2] ({CH2CO}-[dA][NMe3Pal]N[Gly(cBu)][Aad](NH2)N[Trp(1-Me)]K([CO-Piperazinyl(4-CH2COOH)])[Trp(1-Me)]T[Aad](NH2)C-NH2; thioether N-12) | < 1 |
